In ChEMBL document CHEMBL1201862, “PubChem BioAssay data set” (2004):
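Protocol summary: plate cells (96-well), add compound at 5 concentrations, incubate 48 h, interpolate endpoints linearly. GI50 marks 50% less growth.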 Calls of active or inactive are those of the source. Rule as the data show it: active = GI50 up to about 1.1 µM and inactive = higher.

Tests used:
Assay in all cases: NCI-60 cell line screen, 48 h
[1] = test system: RXF 393
[2] = test system: OVCAR-3
[3] = test system: RPMI-8226
[4] = test system: OVCAR-4
[5] = test system: K562
[6] = test system: NCI-H226
[7] = test system: M19-MEL
[8] = test system: LXFL 529
[9] = test system: U-251
[10] = test system: SNB-75
[11] = test system: SNB-19
[12] = test system: RXF 631
[13] = test system: CAKI-1
[14] = test system: Malme-3M
[15] = test system: HOP-92
[16] = test system: DLD-1
[17] = test system: LOX IMVI
[18] = test system: HT-29
[19] = test system: SW-620
[20] = test system: COLO 205
[21] = test system: ACHN
[22] = test system: NCI-H460
[23] = test system: SK-MEL-5
[24] = test system: HCC 2998
[25] = test system: CCRF-CEM
[26] = test system: KM-20L2
[27] = test system: UO-31
[28] = test system: SK-MEL-28
[29] = test system: NCI-H23
[30] = test system: M14
[31] = test system: SNB-78
[32] = test system: DMS-114
[33] = test system: 786-0
[34] = test system: OVCAR-8
[35] = test system: TK-10
[36] = test system: A498
[37] = test system: HOP-62
[38] = test system: OVCAR-5
[39] = test system: SK-OV-3
[40] = test system: SF-295
[41] = test system: EKVX
[42] = test system: HCT-116
[43] = test system: SF-539
[44] = test system: NCI-H522
[45] = test system: XF498
[46] = test system: SN12C
[47] = test system: DMS-273
[48] = test system: A549
[49] = test system: UACC-257
[50] = test system: KM12
[51] = test system: SF-268
[52] = test system: IGROV-1
[53] = test system: HCT-15
[54] = test system: UACC-62
[55] = test system: MOLT-4
[56] = test system: SK-MEL-2
[57] = test system: HOP-18
[58] = test system: SR
[59] = test system: HL-60

`CNC(=O)NCCCCC(NC(C)=O)C(=O)NCc1ccccc1` (stereo not drawn) was tested, and the GI50 [1] was > 100 µM (inactive), the GI50 [2] was > 100 µM (inactive) and the GI50 [3] was > 100 µM (inactive). For the same molecule, the GI50 [4] was > 100 µM (inactive), the GI50 [5] was > 10 µM (inactive) and the GI50 [6] was > 100 µM (inactive). The GI50 [7] was > 100 µM (inactive), the GI50 [8] was > 100 µM (inactive) and the GI50 [9] was > 100 µM (inactive). For the same molecule, the GI50 [10] was 47.1 µM (inactive), the GI50 [11] was > 100 µM (inactive) and the GI50 [12] was > 100 µM (inactive). For the same molecule, the GI50 [13] was > 100 µM (inactive), the GI50 [14] was > 100 µM (inactive) and the GI50 [15] was > 100 µM (inactive). For the same molecule, the GI50 [16] was > 100 µM (inactive), the GI50 [17] was > 100 µM (inactive) and the GI50 [18] was > 100 µM (inactive). The GI50 [19] was > 100 µM (inactive), the GI50 [20] was > 100 µM (inactive) and the GI50 [21] was > 100 µM (inactive). The GI50 [22] was > 100 µM (inactive), the GI50 [23] was > 100 µM (inactive) and the GI50 [24] was > 100 µM (inactive). The GI50 [25] was > 100 µM (inactive), the GI50 [26] was > 100 µM (inactive) and the GI50 [27] was > 100 µM (inactive). The GI50 [28] was > 100 µM (inactive), the GI50 [29] was > 100 µM (inactive) and the GI50 [30] was > 100 µM (inactive). For the same molecule, the GI50 [31] was > 100 µM (inactive), the GI50 [32] was > 100 µM (inactive) and the GI50 [33] was > 100 µM (inactive). The GI50 [34] was > 100 µM (inactive), the GI50 [35] was > 100 µM (inactive) and the GI50 [36] was > 100 µM (inactive). For the same molecule, the GI50 [37] was > 100 µM (inactive), the GI50 [38] was > 100 µM (inactive) and the GI50 [39] was > 100 µM (inactive). For the same molecule, the GI50 [40] was > 100 µM (inactive), the GI50 [41] was > 100 µM (inactive) and the GI50 [42] was > 100 µM (inactive). The GI50 [43] was > 100 µM (inactive), the GI50 [44] was > 100 µM (inactive) and the GI50 [45] was > 100 µM (inactive). The GI50 [46] was > 100 µM (inactive), the GI50 [47] was > 100 µM (inactive) and the GI50 [48] was > 100 µM (inactive). The GI50 [49] was > 100 µM (inactive), the GI50 [50] was > 100 µM (inactive) and the GI50 [51] was > 100 µM (inactive). The GI50 [52] was > 100 µM (inactive), the GI50 [53] was over 100 µM and the GI50 [54] was > 100 µM (inactive). The GI50 [55] was > 100 µM (inactive) and the GI50 [56] was > 100 µM (inactive).

In the case of `COCCOCOC(C)(C)[C@H](CCOC(C)=O)O[Si](c1ccccc1)(c1ccccc1)C(C)(C)C`, the GI50 [1] is reported as 16 µM (inactive), the GI50 [2] is reported as 11 µM (inactive) and the GI50 [3] is reported as 3.96 µM (inactive). The GI50 [4] was 15 µM (inactive), the GI50 [5] was 5.75 µM (inactive) and the GI50 [6] was 3.72 µM (inactive). The GI50 [7] was 13.1 µM (inactive), the GI50 [8] was 7.33 µM (inactive) and the GI50 [9] was 12.3 µM (inactive). For the same molecule, the GI50 [10] was 38.7 µM (inactive), the GI50 [11] was 49 µM (inactive) and the GI50 [12] was 13.4 µM (inactive). For the same molecule, the GI50 [13] was 26.2 µM (inactive), the GI50 [14] was 16.6 µM (inactive) and the GI50 [15] was 5.61 µM (inactive). For the same molecule, the GI50 [16] was 13.5 µM (inactive), the GI50 [17] was 14.1 µM (inactive) and the GI50 [18] was 12.9 µM (inactive). The GI50 [19] was 28.1 µM (inactive), the GI50 [20] was 3.44 µM (inactive) and the GI50 [21] was 15.2 µM (inactive). The GI50 [22] was 5.74 µM (inactive), the GI50 [23] was 10.5 µM (inactive) and the GI50 [24] was 9.1 µM (inactive). For the same molecule, the GI50 [25] was 4.97 µM (inactive), the GI50 [26] was 18.7 µM (inactive) and the GI50 [27] was 13.5 µM (inactive). For the same molecule, the GI50 [57] was 30.3 µM (inactive), the GI50 [28] was 56.5 µM (inactive) and the GI50 [29] was 10.5 µM (inactive). The GI50 [30] was 14.1 µM (inactive), the GI50 [31] was 22.9 µM (inactive) and the GI50 [32] was 12.6 µM (inactive). For the same molecule, the GI50 [33] was 18 µM (inactive), the GI50 [34] was 11.9 µM (inactive) and the GI50 [35] was 22.8 µM (inactive). The GI50 [36] was 20.4 µM (inactive), the GI50 [37] was 23.3 µM (inactive) and the GI50 [38] was 16.8 µM (inactive). The GI50 [39] was 35.4 µM (inactive), the GI50 [40] was 16 µM (inactive) and the GI50 [41] was 27.2 µM (inactive). For the same molecule, the GI50 [42] was 5.93 µM (inactive), the GI50 [44] was 5.52 µM (inactive) and the GI50 [58] was 4.42 µM (inactive). For the same molecule, the GI50 [46] was 5.77 µM (inactive), the GI50 [47] was 5.3 µM (inactive) and the GI50 [48] was 21.1 µM (inactive). The GI50 [49] was 7.19 µM (inactive), the GI50 [50] was 15.4 µM (inactive) and the GI50 [51] was 34.6 µM (inactive). The GI50 [52] was 23.6 µM (inactive), the GI50 [53] was 20.3 µM and the GI50 [54] was 15.7 µM (inactive). For the same molecule, the GI50 [55] was 3.75 µM (inactive), the GI50 [59] was 3.98 µM (inactive) and the GI50 [56] was 18.6 µM (inactive).
